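Five compound concentrations were applied to cells in 96-well plates for 48 hours; endpoints were derived by simple linear interpolation of the resulting dose-response curve. GI50: concentration for 50% inhibition of growth. TGI: concentration producing complete growth inhibition.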
Key:
Assay in all cases: DTP human tumour cell line panel, 48 h
A498 renal = tested on: A498 renal
MOLT-4 leukemia = tested on: MOLT-4 leukemia
A549 NSCLC = tested on: A549 NSCLC
UACC-257 melanoma = tested on: UACC-257 melanoma
CAKI-1 renal = tested on: CAKI-1 renal
OVCAR-8 ovarian = tested on: OVCAR-8 ovarian
786-0 renal = tested on: 786-0 renal
MALME-3M melanoma = tested on: MALME-3M melanoma
NCI-H522 lung = tested on: NCI-H522 lung

Row | Structure (SMILES) | TGI (A498 renal) | TGI (MOLT-4 leukemia) | TGI (A549 NSCLC) | TGI (UACC-257 melanoma) | TGI (CAKI-1 renal) | TGI (OVCAR-8 ovarian) | TGI (786-0 renal) | TGI (MALME-3M melanoma) | TGI (NCI-H522 lung) | GI50 (A498 renal) | GI50 (MOLT-4 leukemia) | GI50 (A549 NSCLC) | GI50 (MALME-3M melanoma) | GI50 (NCI-H522 lung) | GI50 (UACC-257 melanoma) | GI50 (CAKI-1 renal) | GI50 (OVCAR-8 ovarian) | GI50 (786-0 renal)
1 | C[Si](C)(C)C(CCCCSc1ccccc1)(Sc1ccccc1)Sc1ccccc1 | > 100 µM | > 100 µM | > 100 µM | > 100 µM | > 100 µM | > 100 µM | > 100 µM |  |  |  |  |  |  |  |  |  |  | 
2 | O=C(C#Cc1ccccc1)N1c2ccccc2CC1c1c[nH]c2ccccc12 (configuration not stated) | 73 µM | 46.6 µM | 49.1 µM | 42 µM | 33.2 µM | 27.5 µM | 34.8 µM | 37.6 µM | 24.1 µM |  |  |  |  |  |  |  |  | 
3 | COc1ccc(OC(C(=O)O)C(C)C)c2c1CCCC2=O (configuration not stated) | > 100 µM | > 100 µM | > 100 µM | > 100 µM | > 100 µM | > 100 µM | > 100 µM | > 100 µM | > 100 µM |  |  |  |  |  |  |  |  | 
4 | COc1ccc(-c2cc(C(=O)Nc3cc(C(F)(F)F)cc(C(F)(F)F)c3)c3ccccc3n2)cc1 | 40 µM | > 100 µM | 17.5 µM | 51.4 µM | 25.5 µM | 38.9 µM | 28.1 µM | 46.4 µM |  |  |  |  |  |  |  |  |  | 
5 | [O-]c1ccccc1C=Nc1ccc2c(c1)CCC2.[O-]c1ccccc1C=Nc1ccc2c(c1)CCC2.[O]=[U+2]=[O] | > 100 µM | > 100 µM | > 100 µM | > 100 µM | > 100 µM | > 100 µM | > 100 µM | > 100 µM | > 100 µM | > 100 µM | 12.4 µM | > 100 µM | > 100 µM | > 100 µM | > 100 µM | > 100 µM | 59.3 µM | 40.3 µM
6 | O=c1nc(-c2ccccc2)cc(CC(O)c2ccc(Cl)c(Cl)c2)[nH]1 (configuration not stated) | 77.2 µM | > 100 µM | > 100 µM | > 100 µM | > 100 µM | > 100 µM | > 100 µM | > 100 µM | 90.8 µM |  |  |  |  |  |  |  |  | 
7 | O=C1C(=O)N(c2ccc(Cl)cc2)C(=O)C(=O)C1c1nc2ccccc2s1 |  | > 100 µM |  | > 100 µM | > 100 µM | > 100 µM | > 100 µM | > 100 µM | > 100 µM |  |  |  |  |  |  |  |  | 
8 | Cc1cc(Nc2nc(C(=O)Nc3ccccc3)nc3ccccc23)n[nH]1 | > 25 µM | > 25 µM | > 25 µM | > 25 µM | > 25 µM | > 25 µM | > 25 µM | > 25 µM | > 25 µM | 1.05 µM | 9.75 µM | 13.9 µM | 13.8 µM | 6.37 µM | > 25 µM | 1.87 µM | 14.5 µM | 10.1 µM
9 | O=C1OC(c2ccccc2)=N/C1=C\c1ccc(Oc2ccc(Cl)c(Cl)c2)cc1 | > 100 µM | 60.6 µM | > 100 µM | > 100 µM |  | 46 µM | > 100 µM | > 100 µM | > 100 µM |  |  |  |  |  |  |  |  | 
10 | COC(=O)CC(C(C(=O)OCc1ccccc1)C(C)O)N1C(=O)OC(c2ccccc2)C1c1ccccc1 (configuration not stated) | > 100 µM | > 100 µM | > 100 µM | > 100 µM |  | > 100 µM | > 100 µM | > 100 µM |  |  |  |  |  |  |  |  |  | 
11 | NCCCCC1NC(=O)C(CC(=O)O)NC(=O)CNC(=O)C(CCCN=C(N)N)NC(=O)C(N)CSSCC(C(=O)O)NC(=O)C(CC(=O)O)NC(=O)C2CCCN2C(=O)CNC1=O (configuration not stated) | > 100 µM |  | > 100 µM |  | > 100 µM | > 100 µM | > 100 µM | > 100 µM | > 100 µM | > 100 µM |  | > 100 µM | > 100 µM | > 100 µM |  | 65.4 µM | > 100 µM | > 100 µM
12 | CCOC(=O)CCC1(C(=O)OCC)CCCC1=O (configuration not stated) | > 100 µM | > 100 µM | > 100 µM | > 100 µM | > 100 µM | > 100 µM | > 100 µM | > 100 µM | > 100 µM |  |  |  |  |  |  |  |  | 
13 | COC(=O)CCC12CCC(=O)C1[C@@H](C(=O)OC)C[C@H]2C(=O)OC (some centres not stated) | > 100 µM | > 100 µM | > 100 µM | > 100 µM | > 100 µM | > 100 µM | > 100 µM | > 100 µM | > 100 µM |  |  |  |  |  |  |  |  | 
14 | C#CCNC(=O)NCCCCC(NC(=O)OCc1ccccc1)C(=O)OCc1ccccc1 (configuration not stated) | > 100 µM | 51.9 µM | > 100 µM | > 100 µM | 97.3 µM | > 100 µM | > 100 µM | > 100 µM | 54 µM |  |  |  |  |  |  |  |  | 
15 | O=c1cccccc1NCCCCCCCNc1cccccc1=O |  | 53.4 µM | > 100 µM | 45.7 µM | > 100 µM | > 100 µM | > 100 µM | > 100 µM | 55.2 µM |  |  |  |  |  |  |  |  | 
16 | O=C(O)c1cc(=O)c2c([nH]c3ccccc32)s1 |  | > 100 µM | > 100 µM | > 100 µM | > 100 µM | > 100 µM | > 100 µM | > 100 µM | > 100 µM |  |  |  |  |  |  |  |  | 

Reference: PubChem BioAssay (NCI)
